How the values were obtained:
[1] = target: T1, PI3Kα (Homo sapiens, UniProt P42336); test: In vitro PI3 kinase enzyme assay (PI3K ATPLoss); assay type: biochemical; conditions: recombinant p110α/p85, residual ATP by bioluminescence
T1 construct: Full length p110 subunits of PI3K α, β and δ, N-terminally labeled with polyHis tag; polyHis (N); made in house; host or cells: Sf9 insect cells (baculovirus)
Method: Full length p110 subunits of PI3K α, β and δ, N-terminally labeled with polyHis tag, can be co-expressed with p85 with Baculo virus expression vectors in sf9 insect cells. P110/p85 heterodimers can be purified by sequential Ni-NTA, Q-HP, Superdex-100 chromatography. Purified α, β and δ isozymes can be stored at −20° C. in 20 mM Tris, pH 8, 0.2M NaCl, 50% glycerol, 5 mM DTT, 2 mM Na cholate. Truncated PI3Kγ, residues 114-1102, N-terminally labeled with polyHis tag, can be expressed with Baculo virus in Hi5 insect cells. The γ isozyme can be purified by sequential Ni-NTA, Superdex-200, Q-HP chromatography. The γ isozyme can be stored frozen at −80° C. in NaH2PO4, pH 8, 0.2M NaCl, 1% ethylene glycol, 2 mM β-mercaptoethanol.
PI3K enzyme assays (alpha, beta, delta and gamma) can be performed in 25 μL with the above final concentrations of components in white polyproplyene plates. Phosphatidyl inositol phosphoacceptor, PtdIns(4,5)P2 (e.g. P4508) can be obtained from Echelon Biosciences, Salt Lake City, Utah. The ATPase activity of the alpha and gamma isozymes may not be greatly stimulated by PtdIns(4,5)P2 under these conditions, it can be omitted from the assay of these isozymes. Test compounds can be dissolved in DMSO and diluted with three-fold serial dilutions. The compound in DMSO (1 μL) may be added per test well, and the inhibition relative to reactions containing no compound, with and without enzyme can be determined. After assay incubation at RT, the reaction can be stopped and residual ATP can be determined by addition of an equal volume of a commercial ATP bioluminescence kit (Perkin Elmer EasyLite, Perkin Elmer, Waltham, Mass.) according to the manufacturer's instructions, and detected using an Analyst GT luminometer.

[2] = tested on: phosphorylation of Akt at Serine 473 in U87 MG cells; test: pAkt AlphaScreen (U87 Cell); assay type: cell-based; conditions: Homo sapiens, U-87 MG, 2 h, 2 h compound, pAkt Ser473 AlphaScreen
Method: The pAkt AlphaScreen® assay (PerkinElmer, Waltham, Mass.) determines whether there is phosphorylation of Akt at Serine 473 by recruitment of a phosphospecific antibody. This assay was performed using U87 MG cells. The U87 growth media consists of MEM (Gibco, Carlsbad, Calif.) supplemented with 10% FBS (Gibco), 1× Non-Essential Amino Acids (Gibco) and 1× Penicillin/Streptomycin/Glutamine (Gibco). The cells were maintained weekly using 0.05% Trypsin (Gibco) and replated in 150 mm TC-Treated Culture Dishes (Corning, Corning, N.Y.).
The first day of the assay, the adherent cells were trypsinized, media was added to the loose cells and cells were mixed to a homogenous mixture. 0.5 ml of the homogenous mixture was counted on the Beckman Coulter® Vi-CELL™ XR (Fullerton, Calif.). 50 frames of cells were counted and the number of viable cells was determined. The cells were then diluted to 0.25 million cells per ml, and centrifuged at 200 rcf for 5 minutes. The media was removed and the cells were reconstituted in fresh media for plating. The cells were plated at 20 μl per well on the PerkinElmer® Flexprop PLUS in Low Volume 384 Well White Tissue Culture Plates (Corning) with a final cell density of 5K cells per well. The plates were incubated overnight at 37° Celsius, 5% CO2.
On the second day, the compound plates were prepared, the cells were treated with compound and the pAkt reaction mix was added to the cell lysate. 384 well compound plates were prepared containing 1 μl of compound per well starting at 5 mM and diluted 1:2 across the row, resulting in a 22 well serial dilution. 39 μl of growth media was added to the compound plate in rows 1-22 using the PerkinElmer® FlexDrop PLUS resulting in a DMSO concentration of 2.5%. The cell plates and diluted compound plates were put onto the VELOCITY11™ VPREP™ 384 ST where the compound plate was mixed and 5 μl of serially diluted compound or controls was added to the cell plate. The final concentration of the compounds was 25 μM serially diluted to 11.9 pM in 0.5% DMSO. The cell plates were then incubated with compound for two hours at 37° Celsius, 5% CO2. After two hours, the media in the cell plates was aspirated using the BioTek® ELx405HT plate washer (Winooski, Vt.) removing the majority of media and compound without disturbing the adherent U87 cells. The following assay reagents are components of the SureFire® Akt (Ser 473) Phosphorylation 50K Point Kit (TGR BioSciences, Adelaide, Australia) and an IgG Detection Kit (PerkinElmer, Waltham, Mass.). 5 μl of 1× Lysis Buffer was added to each well using the PerkinElmer® FlexDrop PLUS. The plates were then incubated at room temperature on a shaker for ten minutes. The AlphaScreen® reaction was prepared under low light conditions (subdued or green light) including p-Akt (Ser 473) Reaction Buffer, Dilution Buffer, Activation Buffer, Acceptor Beads and Donor Beads at a ratio of 40:20:10:1:1 respectively. The AlphaScreen® reaction was added to the cell lysate at 6 μl per well using the PerkinElmer® FlexDrop PLUS. The plates were placed in a humid environment to reduce edge effects and incubated overnight at room temperature with restricted air flow in the dark.
On the final day of the experiment, the plates were read on the PerkinElmer® EnVision™ 2103 Multilable Reader using the standard AlphaScreen® readout. The POC is calculated and the data is analyzed to report the IC50 IP for pAkt at Serine 473.

T1 sequence (P42336 whole entry, species assumed): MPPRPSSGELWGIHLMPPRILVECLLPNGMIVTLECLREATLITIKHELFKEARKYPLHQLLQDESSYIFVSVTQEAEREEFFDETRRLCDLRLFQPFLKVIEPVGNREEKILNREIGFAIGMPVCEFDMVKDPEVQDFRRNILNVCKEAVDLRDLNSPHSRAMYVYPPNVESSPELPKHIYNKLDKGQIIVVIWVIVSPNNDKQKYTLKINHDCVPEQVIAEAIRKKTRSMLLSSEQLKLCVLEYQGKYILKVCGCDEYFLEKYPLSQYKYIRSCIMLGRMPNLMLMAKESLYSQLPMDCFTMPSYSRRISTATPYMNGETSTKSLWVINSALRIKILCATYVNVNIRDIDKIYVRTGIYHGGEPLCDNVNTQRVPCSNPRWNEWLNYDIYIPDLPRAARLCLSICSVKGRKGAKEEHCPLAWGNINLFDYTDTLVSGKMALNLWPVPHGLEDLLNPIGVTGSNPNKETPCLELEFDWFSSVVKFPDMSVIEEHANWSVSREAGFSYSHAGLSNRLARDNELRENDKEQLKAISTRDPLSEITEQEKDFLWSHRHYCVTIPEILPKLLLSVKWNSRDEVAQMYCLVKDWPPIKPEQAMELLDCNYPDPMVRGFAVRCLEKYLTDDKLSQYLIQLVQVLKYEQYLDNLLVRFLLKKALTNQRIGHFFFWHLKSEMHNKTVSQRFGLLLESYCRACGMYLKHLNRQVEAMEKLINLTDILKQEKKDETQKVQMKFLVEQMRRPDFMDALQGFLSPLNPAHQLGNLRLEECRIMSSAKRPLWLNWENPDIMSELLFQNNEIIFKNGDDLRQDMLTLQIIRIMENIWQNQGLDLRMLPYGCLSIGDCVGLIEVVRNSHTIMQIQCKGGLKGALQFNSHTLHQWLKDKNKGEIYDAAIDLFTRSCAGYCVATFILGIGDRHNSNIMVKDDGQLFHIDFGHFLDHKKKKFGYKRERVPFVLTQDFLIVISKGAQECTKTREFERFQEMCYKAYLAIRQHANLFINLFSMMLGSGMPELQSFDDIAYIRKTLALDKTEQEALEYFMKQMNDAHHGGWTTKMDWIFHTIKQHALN
T1 sequence (P27986 whole entry partner, species assumed): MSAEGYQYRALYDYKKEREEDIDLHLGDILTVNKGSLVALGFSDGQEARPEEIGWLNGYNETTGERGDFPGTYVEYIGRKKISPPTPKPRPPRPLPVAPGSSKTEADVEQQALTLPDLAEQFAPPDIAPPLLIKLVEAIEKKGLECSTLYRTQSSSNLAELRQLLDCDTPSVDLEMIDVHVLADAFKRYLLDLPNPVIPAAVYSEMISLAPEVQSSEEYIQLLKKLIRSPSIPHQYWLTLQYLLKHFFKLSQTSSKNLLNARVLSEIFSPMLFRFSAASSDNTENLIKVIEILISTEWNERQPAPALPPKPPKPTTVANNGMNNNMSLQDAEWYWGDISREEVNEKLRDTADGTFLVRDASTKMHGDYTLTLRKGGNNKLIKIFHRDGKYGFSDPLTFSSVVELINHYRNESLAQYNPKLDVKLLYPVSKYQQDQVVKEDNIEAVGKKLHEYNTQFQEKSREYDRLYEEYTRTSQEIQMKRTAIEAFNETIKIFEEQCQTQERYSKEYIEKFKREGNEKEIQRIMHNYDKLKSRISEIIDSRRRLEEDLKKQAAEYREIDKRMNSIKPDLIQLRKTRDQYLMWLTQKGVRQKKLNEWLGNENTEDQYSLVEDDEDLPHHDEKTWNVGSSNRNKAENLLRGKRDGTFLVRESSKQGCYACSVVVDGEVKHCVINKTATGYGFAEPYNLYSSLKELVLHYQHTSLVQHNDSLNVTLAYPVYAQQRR

Row | IC50 [1] [nM] | IC50 [2] [nM] | Structure (SMILES)
1 | 102 | 55 | CS(=O)(=O)Nc1cc(-c2ccc3nc(N)c(-c4cccc(F)c4)n3n2)cnc1Cl [Example 23, N-(5-(2-Amino-3-(3-fluorophenyl)imidazo[1,2-b]pyridazin-6-yl)-2-chloropyridin-3-yl)methanesulfonamide]
2 | 15 | 3200 | CC(=O)Nc1nc2ccc(-c3cnc(Cl)c(NS(C)(=O)=O)c3)nn2c1-c1cccc(F)c1 [Example 22, N-(6-(6-Chloro-5-(methylsulfonamido)pyridin-3-yl)-3-(3-fluorophenyl)imidazo[1,2-b]pyridazin-2-yl)acetamide]
3 | 33 | 2180 | CC(=O)Nc1nc2ccc(-c3cnc(Cl)c(NS(C)(=O)=O)c3)nn2c1I [Example 21, N-(6-(6-Chloro-5-(methylsulfonamido)pyridin-3-yl)-3-iodoimidazo[1,2-b]pyridazin-2-yl)acetamide]
4 | 982 | – | CC(=O)Nc1cn2nc(-c3cccc(N)c3)ccc2n1 [Example 5, N-(6-(3-Aminophenyl)imidazo[1,2-b]pyridazin-2-yl)acetamide]
5 | 1170 | ≥ 25000 | CS(=O)(=O)Nc1cc(-c2ccc3nc(N)c(-c4ccc(F)c(C(=O)O)c4)n3n2)cnc1Cl [Example 25, 5-(2-Amino-6-(6-chloro-5-(methylsulfonamido)pyridin-3-yl)imidazo[1,2-b]pyridazin-3-yl)-2-fluorobenzoic acid]
6 | 44 | 242 | COc1ccc(-c2ccc3nc(NC(C)=O)cn3n2)cc1OC [Example 43, N-(6-(3,4-Dimethoxyphenyl)imidazo[1,2-b]pyridazin-2-yl)acetamide]
7 | 64 | – | Nc1cn2cc(-c3cnc(Cl)c(NS(=O)(=O)c4ccc(F)cc4)c3)ccc2n1 [Example 29, N-(5-(2-Aminoimidazo[1,2-a]pyridin-6-yl)-2-chloropyridin-3-yl)-4-fluorobenzenesulfonamide]
8 | – | 118 | Nc1nc2ccc(-c3cnc(Cl)c(NS(=O)(=O)c4cccc(OC(F)F)c4)c3)nn2c1-c1cccnc1 [Example 50, N-(5-(2-Amino-3-(pyridin-3-yl)imidazo[1,2-b]pyridazin-6-yl)-2-chloropyridin-3-yl)-3-(difluoromethoxy)benzenesulfonamide]
9 | 214 | – | CC(=O)Nc1cn2cc(-c3cncc(N)c3)ccc2n1 [Example 14, N-(6-(5-Aminopyridin-3-yl)H-imidazo[1,2-a]pyridin-2-yl)acetamide]
10 | – | 14 | Cc1cc(-c2c(N)nc3ccc(-c4cnc(Cl)c(NS(=O)(=O)c5cccc(OC(F)F)c5)c4)nn23)ccn1 [Example 47, N-(5-(2-Amino-3-(2-methylpyridin-4-yl)imidazo[1,2-b]pyridazin-6-yl)-2-chloropyridin-3-yl)-3-(difluoromethoxy)benzenesulfonamide]
11 | 93 | ≥ 25000 | CC(=O)Nc1nc2ccc(-c3cnc(Cl)c(NS(C)(=O)=O)c3)nn2c1-c1ccc(F)c(C(=O)N2CCOCC2)c1 [Example 24, N-(6-(6-chloro-5-(methylsulfonamido)pyridin-3-yl)-3-(4-fluoro-3-(morpholine-4-carbonyl)phenyl)imidazo[1,2-b]pyridazin-2-yl)acetamide]
12 | 1860 | – | CC(=O)Nc1cn2cc(-c3ccnc(Cl)n3)ccc2n1 [Example 53, N-(6-(2-Chloropyrimidin-4-yl)H-imidazo[1,2-a]pyridin-2-yl)acetamide]
13 | 14 | 115 | COc1cc(-c2ccc3nc(NC(C)=O)cn3n2)cnc1OC [Example 20, N-(6-(5,6-Dimethoxypyridin-3-yl)imidazo[1,2-b]pyridazin-2-yl)acetamide]
14 | – | 3900 | CC(=O)Nc1nc2ccc(-c3cnc(Cl)c(NS(=O)(=O)c4cccc(OC(F)F)c4)c3)nn2c1-c1cccnc1 [Example 49, N-(6-(6-Chloro-5-(3-(difluoromethoxy)phenylsulfonamido)pyridin-3-yl)-3-(pyridin-3-yl)imidazo[1,2-b]pyridazin-2-yl)acetamide]
15 | 96 | – | CC(=O)Nc1cn2nc(-c3cccc(NS(=O)(=O)c4cccc5cnccc45)c3)ccc2n1 [Example 6, N-(6-(3-(Isoquinoline-5-sulfonamido)phenyl)imidazo[1,2-b]pyridazin-2-yl)acetamide]
16 | – | 439 | Nc1nc2ccc(-c3cnc(Cl)c(NS(=O)(=O)c4cccc(OC(F)F)c4)c3)nn2c1C1=CCNCC1 [Example 51, N-(5-(2-Amino-3-(1,2,3,6-tetrahydropyridin-4-yl)imidazo[1,2-b]pyridazin-6-yl)-2-chloropyridin-3-yl)-3-(difluoromethoxy)benzenesulfonamide]
17 | – | 27 | Nc1nc2ccc(-c3cnc(Cl)c(NS(=O)(=O)c4cccc(OC(F)F)c4)c3)nn2c1-c1ccncc1 [Example 45, N-(5-(2-Amino-3-(pyridin-4-yl)imidazo[1,2-b]pyridazin-6-yl)-2-chloropyridin-3-yl)-3-(difluoromethoxy)benzenesulfonamide]
18 | 782 | – | CC(=O)Nc1cn2nc(-c3ccnc(F)c3)ccc2n1 [Example 3, N-(6-(2-Fluoropyridin-4-yl)imidazo[1,2-b]pyridazin-2-yl)acetamide]
19 | – | 7480 | CC(=O)Nc1nc2ccc(-c3cnc(Cl)c(NS(=O)(=O)c4cccc(OC(F)F)c4)c3)nn2c1-c1ccncc1 [Example 44, N-(6-(6-Chloro-5-(3-(difluoromethoxy)phenylsulfonamido)pyridin-3-yl)-3-(pyridin-4-yl)imidazo[1,2-b]pyridazin-2-yl)acetamide]
20 | 211 | – | CC(=O)Nc1cn2cc(-c3cncc(NCCC(C)(C)C)c3)ccc2n1 [Example 18, N-(6-(5-(3,3-Dimethylbutylamino)pyridin-3-yl)H-imidazo[1,2-a]pyridin-2-yl)acetamide]
21 | – | 5790 | CC(=O)Nc1nc2ccc(-c3cnc(Cl)c(NS(=O)(=O)c4cccc(OC(F)F)c4)c3)nn2c1-c1ccnc(C)c1 [Example 46, N-(6-(6-Chloro-5-(3-(difluoromethoxy)phenylsulfonamido)pyridin-3-yl)-3-(2-methylpyridin-4-yl)imidazo[1,2-b]pyridazin-2-yl)acetamide]
22 | – | 18 | CC(=O)Nc1nc2ccc(-c3cnc(Cl)c(NS(=O)(=O)c4ccc(F)cc4)c3)nn2c1-c1ccncc1 [Example 48, N-(6-(6-Chloro-5-(4-fluorophenylsulfonamido)pyridin-3-yl)-3-(pyridin-4-yl)imidazo[1,2-b]pyridazin-2-yl)acetamide]

Reference: patent US7820665B2, “Imidazopyridazine inhibitors of PI3 kinase for cancer treatment” (Amgen Inc., priority 2007, dated 2010)
